From US6531453B1, “NKT cell activators containing α-glycosylceramides” (Kirin Beera Kabushiki Kaisha, priority 1997, dated 2003)

B1: IL-12: interleukin 12 (IL-12), known to activate NKT cells (protein, UniProt P29459 23-219; P29460 23-328, looked up)
Interleukin-12 subunit alpha: RNLPVATPDPGMFPCLHHSQNLLRAVSNMLQKARQTLEFYPCTSEEIDHEDITKDKTSTVEACLPLELTKNESCLNSRETSFITNGSCLASRKTSFMMALCLSSIYEDLKMYQVEFKTMNAKLLMDPKRQIFLDQNMLAVIDELMQALNFNSETVPQKSSLEEPDFYKTKIKLCILLHAFRIRAVTIDRVMSYLNAS
Interleukin-12 subunit beta: IWELKKDVYVVELDWYPDAPGEMVVLTCDTPEEDGITWTLDQSSEVLGSGKTLTIQVKEFGDAGQYTCHKGGEVLSHSLLLLHKKEDGIWSTDILKDQKEPKNKTFLRCEAKNYSGRFTCWWLTTISTDLTFSVKSSRGSSDPQGVTCGAATLSAERVRGDNKEYEYSVECQEDSACPAAEESLPIEVMVDAVHKLKYENYTSSFFIRDIIKPDPPKNLQLKPLKNSRQVEVSWEYPDTWSTPHSYFSLTFCVQVQGKSKREKKDRVFTDKTSATVICRKNASISVRAQDRYYSSSWSEWASVPCS

Tests used:
[1] = test system: spleen cells of RAG-1KO/Vα14tg/Vβ8.2tg mice (NKT cells); test: Stimulation of NKT cell proliferation, [3H]thymidine incorporation in spleen cells; assay type: cell-based, mouse; conditions: 2 days incubation
Protocol: Stimulation of NKT cell proliferation by compounds having an α-glycosylceramide structure was studied using spleen cells of RAG-1KO/Vα14tg/Vβ8.2tg mice shown in Pharmacological Test Example 1.
Spleen cells were prepared from the spleen of RAG-1KO/Vα14tg/Vβ8.2tg mice by conventional methods. These spleen cells were suspended at 2×10^6 cells/ml in an RPMI 1640 medium supplemented with 10% FCS, and 100 μl each of the suspension were plated into wells of 96-well round-bottomed plates. Ten different kinds of compounds having an α-glycosylceramide structure shown in FIG. 12 were added to the wells of the plates at a final concentration of 1, 10 or 100 ng/ml, and the plates were incubated for 2 days. Sixteen hours after the addition of [^3H] thymidine (0.5 μCi/well), the cells were harvested. The amount of [^3H] thymidine incorporated into the cells was measured by a liquid scintillation counter.

Vα24+ NKT cells = test: Stimulation of Vα24+ NKT cell proliferation, autologous mixed leukocyte reaction with treated antigen-presenting cells; assay type: cell-based, human; conditions: antigen-presenting cells treated with 100 ng/ml, FIG. 9
Protocol: Peripheral blood mononuclear cells of a normal human were cultured for 4 days in an AIM medium supplemented with 10% FCS with the addition of GM-CSF (400 U/ml), IL-4 (200 U/ml) and KRN 7000 (100 ng/ml) to prepare antigen-presenting cells.
An autologous mixed leukocyte reaction (MLR) was performed using these antigen-presenting cells as stimulator cells and autologous peripheral blood mononuclear cells as responder cells. After incubation for 10 days, IL-2 (5 U/ml) was added, incubation was continued for another 4 days, and the cells were harvested. Next, CD4, CD8 double negative cells were recovered from these harvested cells and subjected to the phenotype analysis. The phenotypic analysis was expressed by fluorescence intensity of labeled antibodies against cells having various phenotypes.
The cells were cultured using IL-2 (5 U/ml) to stimulate the proliferation of Vα24^+ NKT cells, which were used as responder cells in the following autologous mixed leukocyte reaction. Autologous peripheral blood mononuclear cells were cultured for 4 days with the addition of GM-CSF +IL-4 and 100 ng/ml of KRN 7000, AGL-583 (β-galactosylceramide, β-GalCer) or 0.1% DMSO (vehicle) to prepare antigen-presenting cells. An autologous mixed leukocyte reaction was carried out using these antigen-presenting cells as stimulator cells. […]

[2] = test system: 4% DSS-induced mouse colitis (CDF1 mice); test: Suppression of 4% DSS-induced mouse colitis; assay type: in vivo; conditions: KRN 7000 100 μg/kg i.p. days 1, 5, 9, IL-12 1 μg/mouse i.p. days 1, 3, 5, 7, 9
Protocol: Ten animals per group of CDF1 mice (6 weeks of age, females) (Japan SLC Inc.) were used for the following experiment. Day 0 was defined as the day when a 4% DSS solution (4% (w/v) dextran sodium sulfate (DSS) dissolved in water) was first provided as drinking water. The animals were divided into 3 groups, i.e., a group to which 100 μg/kg of KRN 7000 were intraperitoneally administered on days 1, 5, and 9, a group to which 1 μg/mouse of IL-12 was intraperitoneally administered on days 1, 3, 5, 7 and 9, and an untreated (control) group. Body weight was measured and survival or death of the animals were observed daily. Changes in body weight and survival rate are shown in FIG. 5A and 5B, respectively.

mice ((CBAxDBA/2)F1) = test: Induction of abortion in (CBAxDBA/2)F1 mice; assay type: in vivo, mouse; conditions: same amount of IL-12, same manner
Protocol: C57BL/6 mice (Japan SLC) were used for the following experiment. The day when a vaginal plug was observed was defined as day 0. Pregnant mice were divided into 2 groups (6 mice per group), i.e., one group to which 150 μg/kg of KRN 7000 were intravenously administered on days 7, 8 and 9, and another to which PBS (phosphate-buffered saline) was administered in the same way. On day 12, the uterus was removed to observe the state of the embryo.
IL-12 is also known to activate NKT cells. When the same amount of IL-12 was administered to mice ((CBAxDBA/2)F1) in the same manner, the resulting abortion rate was 34%.

Molecule	[3H] Thymidine incorporation (cpm) ([1]; 1 ng/ml, vehicle 2090)	[3H] Thymidine incorporation (cpm) ([1]; 10 ng/ml, vehicle 2056)	[3H] Thymidine incorporation (cpm) ([1]; 100 ng/ml, vehicle 2014)	effect of treated antigen presenting cells on Vα24+ NKT cell proliferation ([3H]thymidine uptake) (Vα24+ NKT cells)	time of weight loss as compared with the control group ([2]; FIG. 5A)	survival period as compared with the control group ([2]; FIG. 5B)	abortion rate (mice ((CBAxDBA/2)F1))
CCCCCCCCCCCCCCCCCCCCCCCCCC(=O)N[C@@H](CO[C@H]1O[C@H](CO[C@H]2O[C@H](CO)[C@H](O)[C@H](O)[C@H]2O)[C@H](O)[C@H](O)[C@H]1O)[C@H](O)[C@H](O)CCCCCCCCCCCCCC [AGL586, O-α-D-galactopyranosyl-(1→6)-O-α-D-galactopyranosyl-(1→1)-(2S,3S,4R)-2-amino-N-hexacosanoyl-1,3,4-octa decanetriol]	5137 cpm	39750 cpm	102425 cpm				
β-galactosylceramide [reference compound]				no effect			
CCCCCCCCCCCCCCCCCCCCCC[C@@H](O)C(=O)N[C@@H](CO[C@H]1O[C@H](CO)[C@H](O)[C@H](O[C@H]2O[C@H](CO)[C@H](O)[C@H](O)[C@H]2NC(C)=O)[C@H]1O[C@H]1O[C@H](CO)[C@@H](O)[C@H](O)[C@H]1O)[C@H](O)[C@H](O)CCCCCCCCCCCCCC [STL-8]	4761 cpm	26474 cpm	47141 cpm				
CCCCCCCCCCCCCCCCCCCCCC[C@@H](O)C(=O)N[C@@H](CO[C@H]1O[C@H](CO)[C@H](O)[C@H](O)[C@H]1O[C@H]1O[C@H](CO)[C@H](O)[C@H](O)[C@H]1O)[C@H](O)[C@H](O)CCCCCCCCCCCCCC [S1140B-9, O-α-D-galactopyranosyl-(1→2)-O-α-D-galactopyranosyl-(1→1)-(2S,3S,4R)-2-amino-N-[(R)-2-hydroxytetracosanoyl]-1,3,4-octadecanetriol]	3387 cpm	10265 cpm	49520 cpm				
CCCCCCCCCCCCCCCCCCCCCCCCCC(=O)N[C@@H](CO[C@H]1O[C@H](CO[C@H]2O[C@H](CO)[C@H](O)[C@H](O)[C@H]2O)[C@@H](O)[C@H](O)[C@H]1O)[C@H](O)[C@H](O)CCCCCCCCCCCCCC [AGL584, O-α-D-galactopyranosyl-(1→6)-O-α-D-glucopyranosyl-(1→1)-(2S,3S,4R)-2-amino-N-hexacosanoyl-1,3,4-octadecane triol]	29331 cpm	65084 cpm	96783 cpm				
CCCCCCCCCCCCCCC[C@@H](O)[C@H](CO[C@H]1O[C@H](CO)[C@H](O)[C@H](O)[C@H]1O)NC(=O)CCCCCCCCCCCCC [AGL517, (2S,3R)-1-(α-D-galactopyranosyloxy)-2-tetradecanoyl amino-3-octadecanol]	3176 cpm	15583 cpm	83169 cpm				
CCCCCCCCCCCCCCCCCCCCCC[C@@H](O)C(=O)N[C@@H](CO[C@H]1O[C@H](CO)[C@H](O)[C@H](O[C@@H]2O[C@@H]([C@H](O)CO)[C@H](O)[C@H]2O)[C@H]1O)[C@H](O)[C@H](O)CCCCCCCCCCCCCC [719-7, O-β-D-galactofuranosyl-(1→3)-O-α-D-galactopyranosyl-(1→1)-(2S,3S,4R)-2-amino-N-[(R)-2-hydroxytetracosanoyl]-1,3,4-octadecanetriol]	5287 cpm	30179 cpm	60528 cpm				
CCCCCCCCCCCCCCC[C@@H](O)[C@H](CO[C@H]1O[C@H](C)[C@H](O)[C@H](O)[C@H]1O)NC(=O)CCCCCCCCCCCCC [AGL571, (2S,3R)-1-(6′-deoxy-α-D-galactopyranosyloxy)-2-tetra decanoylamino-3-octadecanol]	3969 cpm	17848 cpm	118092 cpm				
CCCCCCCCCCCCCCC[C@@H](O)[C@H](CO[C@H]1OC[C@H](O)[C@H](O)[C@H]1O)NC(=O)CCCCCCCCCCCCC [AGL577, (2S,3R)-1-(β-L-arabinopyranosyloxy)-2-tetradecanoyl amino-3-octadecanol]	2083 cpm	7792 cpm	49701 cpm				
CCCCCCCCCCCCCCC[C@@H](O)[C@H](CO[C@H]1O[C@H](CO)[C@@H](O)[C@H](O)[C@H]1O)NC(=O)CCCCCCCCCCCCC [AGL563, (2S,3R)-1-(α-D-glucopyranosyloxy)-2-tetradecanoyl amino-3-octadecanol]	2063 cpm	3773 cpm	13131 cpm				
B1					at an extremely early period	significantly shorter	34%
